# Reference: paper PMC9387934, “Randomized single oral dose phase 1 study of safety, tolerability, and pharmacokinetics of Iminosugar UV-4 Hydrochloride (UV-4B) in healthy subjects” (PLoS Neglected Tropical Diseases, 2022)
# Where a name gives a salt, the structure may show the parent alone.
# Assays:
# [1] = design: method as in Investigator’s Brochure (IB); details: rat, average; ref Investigator’s Brochure (IB); cited from earlier work
# CYP1A2 = test system: CYP1A2; design: method as in Investigator’s Brochure (IB); details: in vitro; ref Investigator’s Brochure (IB); cited from earlier work
# CYP2C8 = test system: CYP2C8; design: method as in Investigator’s Brochure (IB); details: in vitro; ref Investigator’s Brochure (IB); cited from earlier work
# [2] = 14-day GLP toxicology study in dogs (UV4-COV-0035); format: in vivo, dog
# Procedure: Fourteen-day studies were conducted in mice and dogs. In dogs at 2 mg/kg/dose TID (6 mg/kg/day), there were mild decreases in platelets (PLT), increases in aspartate aminotransferase (AST) (up to 2.8 x baseline [BL]); and a decrease in thymus weight with lymphocyte depletion. Therefore, this dose exceeded the NOEL. At the no observed adverse event level (NOAEL) of 10 mg/kg/dose TID (30 mg/kg/day), there was an increase in the occurrence of poorly formed and liquid feces; decrease in PLT count and increase in activated partial thromboplastin time (aPTT) (2.2 x BL); increase in AST (up to 9.7 x BL) and alanine aminotransferase (ALT) (up to 2.9 x BL) with an inverted AST/ALT ratio; and a decrease in […]
# lymphocyte depletion (no cellular debris was noted, however). The inverted AST/ALT ratio and lymphocyte depletion were reversible. Thymus weight decrease in females was reversible but thymus weight decreases in males were not. However, because the apparent […]
# microscopic thymus findings, thymus weight differences at the recovery necropsy were considered not toxicologically important. […]
# ng•h/mL, respectively. Daily exposure at NOAEL [calculated as 3 x AUC(0-8)] is estimated at 163,305 ng•h/mL. […]
# Daily exposure [calculated as 3 x AUC(0-8)] is estimated at 32,820 ng•h/mL. […]
# [3] = 14-day GLP toxicology study in mice (UV4-COV-036); details: Crl:CD1(ICR), mouse, in vivo, 300 mg/kg/day, read-out: Daily exposure at NOAEL [3 x AUC(0-8)]
# Procedure: Fourteen-day studies were conducted in mice and dogs. […]
# The inverted AST/ALT ratio […]
# and lymphocyte depletion were reversible. Thymus weight decrease in females was reversible but thymus weight decreases in males were not. However, because the apparent […]
# microscopic thymus findings, thymus weight differences at the recovery necropsy were considered not toxicologically important. In mice at 25 mg/kg/dose (75 mg/kg/day) there were decreased thymus weights (males), follicular epithelium vacuolation in the thyroid, and lymphoid depletion of the thymus (males). All findings were reversible but a NOEL was not present at this dose level. At the no NOAEL of 300 mg/kg/day, there were clinical hematology, chemistry, and anatomic pathology findings similar to those observed in the dogs. All findings were reversible.
# Based on these observations, the NOAEL for UV-4B following 14 days of TID administration in mice is considered to be 300 mg/kg/day. This dose level corresponded to Day 14 mean Cmax […]
# ng•h/mL, respectively. Daily exposure at NOAEL [calculated as 3 x AUC(0-8)] is estimated at 163,305 ng•h/mL. In dogs, the NOAEL following 14 days of TID administration is considered to be 30 mg/kg/day. At the end of the dosing phase, this dose level corresponded to average […]
# Daily exposure [calculated as 3 x AUC(0-8)] is estimated at 32,820 ng•h/mL.
# This material is the property of the Unither Virology. […]
# [4] = Reproductive toxicity upper limit study in rabbits, 13 days; format: in vivo, rabbit; details: 50 mg/kg/day
# Procedure: 7. Reproductive toxicity:
# UV-4B has been evaluated for developmental and reproductive toxicity in fertility and early embryonic development in rats, embryo-fetal development in rats and rabbits, and pre- and postnatal development in rats. In male and female rats given UV-4B at 8, 20, and 50 mg/kg/day before mating and continuing through Gestation Day 13, a […]
# observed at 50 mg/kg/day. […]
# count but following a 21-week treatment-free period there was complete recovery in pregnancy and fertility indices However, decrease in testicular weight, sperm motility […]
# identify the upper limit of reproductive toxicity, a dose of 50 mg/kg/day for 12 […]
# In a study designed to identify the upper limit of reproductive toxicity, a dose of 50 […]
# rabbit offspring. The rat and rabbit doses are equivalent to 486 and 966 mg/day, […]
# In summary, findings that have been identified in the UV-4B toxicology studies so far include effects on the GI tract (including ulcers/erosions), lymphocytes and lymphoid tissue, reduction in PLT count, and increases in transaminases (AST>ALT). Findings were generally consistent across mouse, dog, and rat, apart from the isolated finding of swollen paws/legs and perioral appearance and red skin which was seen only in the rat. […]
# [5] = design: method as in Investigator’s Brochure (IB); details: ref Investigator’s Brochure (IB), cited from earlier work
Compound,Bioavailability [1],Direct inhibition of CYP1A2 (CYP1A2),Direct inhibition of CYP2C8 (CYP2C8),"AUC(0-t) ([2]; both sexes, dog, in vivo, 30 mg/kg/day, dogs, at NOAEL 30 mg/kg/day, read-out: Daily exposure [3 x AUC(0-8)])",HED of the lowest dose tested in dogs ([2]; from 2 mg/kg TID),AUC(0-t) [3],Human equivalent of the rabbit dose [4],"Fertility finding ([5]; male and female rats, 50 mg/kg/day before mating through Gestation Day 13)","Finding in males ([5]; rats, all doses (8, 20, and 50 mg/kg/day))"
"COCCCCCCCCCN1C[C@H](O)[C@@H](O)[C@H](O)[C@H]1CO [UV-4, N-(9’-methoxynonyl)-1-deoxynojirimycin]",≥ 99%,No clinically relevant direct inhibition,No clinically relevant direct inhibition,,,,,,
"COCCCCCCCCCN1C[C@H](O)[C@@H](O)[C@H](O)[C@H]1CO [UV-4B, N-(9’-methoxynonyl)-1-deoxynojirimycin hydrochloride]",,,,32800 ng·h/mL,67 mg TID,163000 ng·h/mL,966 mg/day,decreased pregnancy and fertility indices,decreased sperm motility
